Assay results: ChEMBL document CHEMBL1157539, “Thousands of chemical starting points for antimalarial lead identification” (Nature, 2010)

The compounds below were run on Plasmodium falciparum (assay: GSK_TCMDC: Inhibition of Plasmodium falciparum 3D7 in whole erythrocytes, using parasite LDH activity as an index of growth.). Details: Plasmodium falciparum, 3D7.
Type: functional, organism-based

| SMILES | XC50 |
| --- | --- |
| CN1CCC(N(Cc2ccc(-c3ccc(C(F)(F)F)cc3)cc2)C(=O)Cn2cc(Cc3cnn(C)c3)c(=O)nc2SCc2cccc(F)c2F)CC1 | 933 nM |
| CCOc1cc(CC)ccc1C1CCN(CCN2CCC(NC(=O)c3ccc(-c4ccc(C(C)=O)cc4)cc3)CC2)CC1 | 226 nM |
| CN1CCCC(CN2CCN(Cc3cccc(-c4cccc(-c5nc6ccccc6[nH]5)c4)c3)CC2)C1 (stereo unspecified) | 139 nM |
| CN1CCN(c2cccc(-c3nnc(-c4ccc(OCC(=O)NCc5ccc(C(F)(F)F)cc5)c([N+](=O)[O-])c4)o3)c2)CC1 | 661 nM |
| Cc1[nH]c(C)c(-c2ccc(OCc3cc(F)cc(F)c3)nc2)c(=O)c1Br | 103 nM |
| CCNc1cc(C(=O)N[C@@H](Cc2ccccc2)[C@H](O)CNCCc2cccc3ccccc23)cc(N2CCCC2=O)c1 | 982 nM |
| COc1ccc2nccc(NCC3(O)CCC(NCc4cc5c(cn4)OCCO5)CC3)c2n1 (stereo unspecified) | 664 nM |
| CCCCCCCN1CC[C@@H](CCCc2ccnc3ccc(OCCN4CCNCC4)cc23)[C@@H](CC)C1 | 771 nM |
| O=c1[nH]ccc2nc(N[C@@H]3CCNC3)nc(Nc3cc(Cl)cc(Cl)c3)c12 | 738 nM |
| CCCCCCCCCCN1C(=O)C2C(CCCCNC(C)=O)NC3(C(=O)N(Cc4ccc(C(C)(C)C)cc4)c4ccccc43)C2C1=O (stereo unspecified) | 993 nM |
| CCC(Cc1ccccc1)c1cc(O)c(Cc2ccc(-c3ccccc3)cc2)c(=O)o1 (stereo unspecified) | 971 nM |
| O=C(NOCCOc1ccccc1)c1ccccc1 | 317 nM |
| COc1ccc(N2CCN(CCCC/C=C/c3ccc(NC(=O)c4cc(Cl)cc(Cl)c4)cc3)CC2)c(OC)c1 | 660 nM |
| c1ccc2c(NCCCCCCCNc3ccnc4ccccc34)ccnc2c1 | 169 nM |
| CN(C)C(CNC(=O)c1cc(-c2ccncc2)c(-c2ccc(NC(=O)Nc3ccccc3)cc2)o1)c1ccccc1 (stereo unspecified) | 603 nM |
| COc1cc(CNCCCNc2nc(=O)c3sccc3[nH]2)c2[nH]cc(Cl)c2c1 | 888 nM |
| Cc1cc2nc(-c3ccc(C(=O)NC4CCN(Cc5ccccc5)CC4)s3)[nH]c2cc1C | 771 nM |
| CCc1ccc(C2CCN(CCCCNC(=O)c3ccc(NC(=O)c4ccc(Cl)cc4)cc3)CC2)c(OC(C)=O)c1 | 145 nM |
| COc1ccc(Oc2ccc(-c3c(O)cc(C)nc3C)cc2)cc1 | 612 nM |
| O=C(/C=C/c1ccc(C(F)(F)F)cc1)N1CCc2cc3nccc(N4CCN5CCC[C@H]5C4)c3cc21 | 1510 nM |
| CC(C)CCCC(C)(C)NC[C@@H](O)[C@H](Cc1ccccc1)NC(=O)c1cccc(OCC2CC2)c1 | 843 nM |
| Cc1noc(C)c1-c1ccc2c(Nc3ccc([N+](=O)[O-])cc3)c(C(N)=O)cnc2c1 | 692 nM |

| SMILES | XC50 |
| --- | --- |
| Clc1ccc(OCCC2CCN(CCCCCCCN3CCC(CCOc4ccc(Cl)c(Cl)c4)CC3)CC2)cc1Cl | 624 nM |
| O=C(/C=C/c1ccc(Cl)c(Cl)c1)N1CCC(CN2CCC(Cc3nc4ccccc4[nH]3)CC2)CC1 | 254 nM |
| Cc1ccc(Nc2nc(NN=Cc3ccc(-c4ccc([N+](=O)[O-])cc4)o3)nc(N3CCOCC3)n2)cc1Cl | 652 nM |
| CCc1cn2c3c(cc(C(=O)N[C@@H](Cc4ccccc4)[C@H](O)CNC4CCC4)cc13)N(C)S(=O)(=O)CC2 | 99 nM |
| CCCCNc1c(C(=O)OCC)c(C)nc2c1[nH]c1ccccc12 | 680 nM |
| CC(C)n1cc(CN2CCCC(C(=O)Nc3cccc(-c4cc5ccccc5[nH]4)c3)C2)cn1 (stereo unspecified) | 999 nM |
| COc1ccc2nccc([C@@H](O)CN3CCC(NC(=O)/C=C/c4cc(F)cc(NC(C)=O)c4)CC3)c2c1 | 183 nM |
| CCN(CCO)Cc1ccc(-c2ccc(NS(=O)(=O)c3cccc4cccnc34)cc2)cc1 | 985 nM |
| O=S(=O)(ON=C1CCc2ccccc21)c1ccc(Cl)cc1 | 1310 nM |
| CCCNCc1ccc(-c2ccc(CN(Cc3cccs3)C(=O)C3CCN(C)CC3)cc2)nc1 | 665 nM |
| C=C[C@H]1CN(CCCCCCC)CC[C@H]1CC(O)Cc1ccnc2cc(O)c(OC)cc12 (stereo partly specified) | 818 nM |
| O=C(NCCCCN1CCC(c2c[nH]c3ccc(-c4ccccc4)cc23)CC1)c1ccc(-c2ccccc2)cc1 | 985 nM |
| O=C(/C=C/c1ccc(Cl)c(Cl)c1)NCCCCCN1CCCN(C(=O)Nc2ccc(C(F)(F)F)cc2)CC1 | 688 nM |
| COc1ccccc1CCNc1nc(C)cc(N[C@@H](CC(C)C)C(=O)NCc2cccs2)n1 | 793 nM |
| COc1ccccc1-n1ccnc1SCC(=O)Nc1cccc(C(F)(F)F)c1 | 160 nM |
| CC(=O)Nc1ccc(OCCCCCOc2ccc(NC(C)=O)cc2Cl)c(Cl)c1 | 833 nM |
| O=C(Nc1ccc(Oc2ccccc2)cc1)N(Cc1ccc(-c2ccc(CN3CCNCC3)cc2)cc1)C1CCN(Cc2ccccc2)CC1 | 886 nM |
| CN(C)CCCn1c(C(=O)OC(c2ccccc2)c2ccccc2)cc2cc(OCc3ccccc3)ccc21 | 201 nM |
| COc1ccc2[nH]c(C)cc(=NN=Cc3ccccc3)c2c1 | 1030 nM |
| N=c1[nH]c2cccc3ccc4cccc1c4c32 | 918 nM |
| COc1cc(CC(C)NCC(O)c2cccc(C(F)(F)F)c2)ccc1OCc1ccccc1 (stereo unspecified) | 818 nM |
| CCCCCCSc1nnc(COc2cccc3ccccc23)n1-c1ccc(OC)cc1 | 45.2 nM |

| SMILES | XC50 |
| --- | --- |
| CC(C)Cn1cc(C2CCN(CCN3CCC(CNC(=O)c4ccc(-c5ccc(C(F)(F)F)cc5)cc4)CC3)CC2)c2ccccc21 | 753 nM |
| COCCOc1ccc(Nc2nccc(-c3c(-c4cccc(NC(=O)c5c(F)cccc5F)c4)nn4ccccc34)n2)cc1Cl | 356 nM |
| OCCN1CCN(Cc2ccc(-c3cccc(-c4nc5ccccc5[nH]4)c3)cc2)CC1 | 749 nM |
| COc1ccc2nccc(N3CCN(CCNCc4ccc5c(n4)NC(=O)CO5)CC3)c2c1 | 1160 nM |
| COc1ccc(NC(=O)Nc2ccc(-c3ccccc3)cc2)cc1Cn1cnc(N2CCCNCC2)cc1=O | 759 nM |
| COc1ccc2ncc(F)c(CCN3CCC4(CC3)COC(c3cc5c(cn3)OCCO5)=N4)c2n1 | 216 nM |
| O=C(NC1CCN(Cc2ccccc2O)C1)c1cccc(C(F)(F)F)c1 (stereo unspecified) | 730 nM |
| CC(Cc1ccc(NS(=O)(=O)c2ccc(CC(C)NCCc3cccc(Cl)c3)cc2)cc1)NCCc1cccc(Cl)c1 (stereo unspecified) | 775 nM |
| c1ccc(-c2[nH]c3ccccc3c2CN2CCC(N3CCCCC3)CC2)nc1 | 1210 nM |
| COc1ccc(-c2ccc(NC(=O)c3cccc(Cl)c3)cc2)cc1CN(C)CCN(C)C | 782 nM |
| N#Cc1cc([N+](=O)[O-])ccc1-n1nc(C(N)=O)n(Cc2cccc(F)c2)c1=S | 721 nM |
| CCC(=O)N(c1ccccc1)C1CCN(CCCC(NC(=O)Nc2cc(C(F)(F)F)cc(C(F)(F)F)c2)c2ccc(Cl)c(Cl)c2)CC1 (stereo unspecified) | 672 nM |
| OCCN1CCN(c2nc(Nc3cccc(F)c3)c3cnn(-c4ccccc4)c3n2)CC1 | 828 nM |
| O=C(c1cc(-c2ccco2)n[nH]1)N1CCN(S(=O)(=O)c2ccc(Br)cc2)CC1 | 497 nM |
| Cc1ccc(NC(=O)NC2CCN(c3ccnc4ccccc34)C2)cc1 (stereo unspecified) | 709 nM |
| COC(=O)/C=C/c1ccc(CC(C)NCC(O)c2cccc(C(F)(F)F)c2)cc1 (stereo unspecified) | 731 nM |
| COc1cccc(-c2cnc(N)c(-c3nc4ccc(F)cc4[nH]3)c2)c1 | 850 nM |
| O=C(/C=C/c1ccc(Cl)c(Cl)c1)NCCCCCN1CCC(NC(=S)Nc2ccc(Cl)cc2)CC1 | 443 nM |
| CC(Cc1ccc(NC(=O)[C@@H](C)NCCc2cccc(Cl)c2)cc1)NCCc1cccc(Cl)c1 (stereo partly specified) | 778 nM |
| O=S(=O)(NC1CCN(c2ccnc3cc(Cl)ccc23)C1)c1ccc(C(F)(F)F)cc1 (stereo unspecified) | 298 nM |
| Cc1nc2ccc3nc(NC(=O)c4ccno4)sc3c2s1 | 656 nM |
| CN1CCN(c2ccc3[nH]c(-c4ccc5[nH]c(-c6ccc([N+](=O)[O-])c(N)c6)nc5c4)nc3c2)CC1 | 105 nM |
